{
  "source": "paper PMC10892818",
  "about": "“An Antiherpesviral Host-Directed Strategy Based on CDK7 Covalently Binding Drugs: Target-Selective, Picomolar-Dose, Cross-Virus Reactivity” (Pharmaceutics, 2024)",
  "key": {"[1]": {"system": "HCMV UL97-H469V", "set-up": "method as in PMID 31940472; key: R-high, high-level drug resistance; R-int, intermediate-level drug resistance; R-low, low-level drug resistance; S, drug sensitivity", "details": "cited from earlier work"}, "[2]": {"system": "GCV- or MBV-resistant HCMV variants (ORF-UL97 mutants)", "assay": "HCMV reporter-based antiviral assays, series of GCV- or MBV-resistant variants", "assay_type": "cell-based, human cytomegalovirus", "method": "For the infection experiments, stocks of the following recombinant, reporter protein-expressing viruses (GFP or YFP (i.e., green or yellow fluorescent protein, respectively)) were propagated (in permissive cells), determined in their infectious titers performing the respective reporter assays, stored by aliquots at −80 °C, and used for the assessment of antiviral drug activities: human cytomegalovirus HCMV AD169-GFP (HFFs); murine cytomegalovirus MCMV C3X-GFP (MEFs); guinea pig cytomegalovirus GPCMV v403-GFP (GPEFs); human herpesvirus type 6A HHV-6A U1102-GFP (J-Jhan); herpes simplex virus type 1 HSV-1 166v VP22-GFP (HFFs); varicella zoster virus VZV Oka-GFP (HFFs); Epstein-Barr virus EBV Akata-GFP (Akata-BX1-GFP carrier cells; kindly provided by Lindsey Hutt-Fletcher and Rona Scott, Dept. Microbiol. […]\nDue to the fact that the HCMV-encoded protein kinase pUL97 represents a functional and structural ortholog of the host CDKs (vCDK/pUL97), the viral mutants of ORF-UL97 were assessed for sensitivity against CDK7 inhibitors. […] These HCMVs (i.e., UL97 mutants C592G, H520Q (GCV-res.) L397R (MBV-res.) M460I, T409M, H411Y, C480F, F432S, C603W (GCV- and MBV-double res.), and H469V (not determined yet)) were used for comparative analysis in HCMV reporter-based antiviral assays."}, "[3]": {"assay": "Neutral Red uptake assay (NRA), iSLK.219 cells", "assay_type": "cell-based", "details": "human, read-out: CC50 (KSHV-GFP/RFP system)", "method": "(§1) The virus recombinants VZV Oka-GFP and rKSHV.219-GFP/RFP were used for the infection of HFFs (VZV) or were continuously passaged in iSLK.219 carrier cells (KSHV), respectively, and cell viability was determined by NRA performed with uninfected HFFs or uninduced iSLK.219 cells, respectively. (A,B) Schematic depiction of the assay systems performed in a 96 well plate format. […] For the VZV-GFP system, virus stock VZV Oka-GFP was applied as a cell-bound infectious inoculum. After a 90 min period of inoculum adsorption to the cell surfaces, antiviral compounds were added to the culture media at serial dilutions (DMSO served as a solvent control for drug treatment of infected cells, while mock-infected cells served as a negative control). For the KSHV-GFP/RFP system, iSLK.219 cell lytic replication of KSHV (RFP reporter signal) was induced by the addition of 0.05 or 0.5 µg/mL doxycycline (dox) to the culture media. Cultivated dox-induced iSLK.219 cells were treated with antiviral compounds added at serial dilutions (DMSO served as a positive infection solvent control, while dox-untreated mock cells served as a negative control). HFFs or iSLK.219 cells were harvested at 4 d p.i. or 1 d after treatment, respectively, fixed by a 10 min incubation with 10% formalin, washed with PBS, and used for quantitation of the GFP or RFP reporter signal by PicoMD counting (ImageXpress® Pico device, Molecular Devices LLC, San Jose, CA, USA), with data evaluation using CellReporterXpress® software (version 2.9.3.1183, Molecular Devices LLC) as described earlier in [63]. (C) The antiviral activity of the reference drugs was determined with the VZV-GFP system in the 96 well format. EC50 values refer to measurements in quadruplicate, and the mean values ± SD of two experimental replicates are given. (D) The antiviral activity of the reference drugs was determined with the KSHV-GFP/RFP system in the 96 well format. EC50 values refer to measurements in triplicate, and the mean values ± SD are given for each of the two depicted experimental replicates."}, "[4]": {"system": "rKSHV.219-GFP/RFP", "assay": "KSHV-GFP/RFP reporter assay in iSLK.219 cells", "assay_type": "cell-based, Kaposi’s sarcoma-associated herpesvirus", "source_text": "The virus recombinants VZV Oka-GFP and rKSHV.219-GFP/RFP were used for the infection of HFFs (virus stock VZV Oka-GFP applied as a cell-bound inoculum as described before) or were continuously passaged in iSLK.219 carrier cells, respectively (Figure 1). The conditions of the GFP/RFP-based assays were adapted to both the 96 well (Figure 1A,B) and 12 well formats, and details including the assessment of antiviral reference drugs are given (Figure 1C,D).\nas §1"}},
  "note": "Read-outs that look alike come from different tables or passages of the source.",
  "data": [
    {"smiles": "Nc1ccn(C[C@@H](CO)OCP(=O)(O)O)c(=O)n1", "note": "[CDV, cidofovir]", "values": [
      {"measurement": "Reported phenotype UL97-H469V", "setting": "[1]", "result": "nd | nd | S"},
      {"measurement": "drug resistance / sensitivity of the GCV- and MBV-resistant HCMVs", "setting": "[2]", "result": "all viruses showed sensitivity"}
    ]},
    {"smiles": "Nc1nc(O)c2ncn(COC(CO)CO)c2n1", "note": "[GCV, ganciclovir]", "values": [
      {"measurement": "CC50", "setting": "[3]; marked 0.05 μg/mL dox", "result": "> 100000", "unit": "nM"},
      {"measurement": "CC50", "setting": "[3]; marked 0.5 μg/mL dox", "result": "> 100000", "unit": "nM"},
      {"measurement": "EC50", "setting": "[4]; Human gammaherpesvirus 8, read-out: KSHV EC50, iSLK.219, 96 well, induced with 0.05 μg/mL dox", "result": "200 ± 100", "unit": "nM"},
      {"measurement": "EC50", "setting": "[4]; Human gammaherpesvirus 8, read-out: KSHV EC50, iSLK.219, 96 well, induced with 0.5 μg/mL dox", "result": 200, "unit": "nM"}
    ]}
  ]
}
